# Bridges are numbered along the chain shown (N, C = ends). Roman numbers before positions name the chains, in order. Where no end group is shown, it is not given here.
# Tests used:
# TGF-β1 mRNA in PC3 cells = test: siRNA transfection of PC3 cells, RT-PCR of TGF-beta1; type: cell-based; settings: human PC3 cells
# Procedure: (§1) • 4. Human prostate carcinoma cell-PC3 was used for detection of the gene expression knockdown. A series of standard transfection experiments were carried out using the protocol provided by the vendor (Invitrogen) with the siRNA duplexes identified in step 2 accordingly. • 5. Total RNA samples were isolated and subjected to RT-PCR analysis using the respective PCR primers identified in step 3 above.
# (§2) Among ten in silico designed 25 mer siRNA sequences, we first pick three for testing. Before testing those siRNA oligos (synthesized by Qiagen) in the corresponding cells, such as human PC-3 cell (a bone metastasis of a […] prostatic adenocarcinoma), we first use RT-PCR to survey the presence of the target gene expression in the total RNA samples (FIG. 14). […] We further surveyed the expression of these three genes in the mouse C166 cell. […] Therefore, we can transfect the three selected siRNA oligos targeting a particular gene into the corresponding cell and then evaluate their gene silencing potential, followed by total RNA isolation and RT-PCR analysis. Three doses were used for each transfection on the 6-well plate: 0.5 ug, 1 ug and 2 ug, with Lipo2000 following the vendor's direction. […] The RT-PCR products were also subjected to the gel electrophoreses and quantification. […]
# Cox-2 mRNA in PC3 cells = test: siRNA transfection of PC3 cells, RT-PCR of Cox-2; type: cell-based; settings: human PC3 cells
# Procedure: as §1, §2
# Hoxb13 mRNA in PC3 cells = test: siRNA transfection of PC3 cells, RT-PCR of Hoxb13; type: cell-based; settings: human PC3 cells
# Procedure: as §1, §2
# lung, liver, and kidney = test: In vivo toxicity of HK peptides after intravenous administration; settings: mice, 1000 μg, 24 h after injection; preliminary studies
# Procedure: H2K4b, had the strongest antifungal effect reducing growth of C. albicans to nearly 40% at 37.5 μg/ml (3.4 μM) and 85% at 50 μg/ml (4.5 μM). […] Relative to in vitro toxicity, the in vivo toxicity differences among these peptides are more striking. […] Of the three organs examined, the kidney appears to be the most sensitive to these peptides. Relative to H2K4b, a decrease in cationic charge in the terminal branches of H3K4b and H3K(G)K4b may, in part, account for their reduced toxicity in vitro and in vivo; the reduction in charge may decrease their interaction with negatively charged cell membranes. With eight additional glycines, H3K(G)4b polymer has a reduced charge per total number of amino acids relative to H3K4b. Because there are five lysines in each terminal arm of H3K(G)4b and H3K4b, however, we doubt that minimal charge differences readily explain the reduced toxicity of H3K(G)4b relative to H3K4b. An alternative possibility is that glycines may disrupt alpha helices in the terminal branches, thereby enhancing the flexibility of the polymer and allowing enzymatic degradation. Several secondary structure programs for peptides predict a marked difference in the alpha helical content between a glycine containing peptide, H3K(G)4b, and the non-glycine containing peptides, H2K4b and H3K4b.
substance,measurement,setting,value
"hmTF-2: 25-mer siRNA duplex targeting human and mouse TGF-β1; sense 5′-CCCAAGGGCUACCAUGCCAACUUCU-3′ (SEQ ID NO: 11) (antisense AGAAGUUGGCAUGGUAGCCCUUGGG; listed as RNA, further chemistry not given here)",TGF-β1 gene expression / silencing activity (RT-PCR),TGF-β1 mRNA in PC3 cells,potent
"hmCX-1: 25-mer siRNA duplex targeting human and mouse COX-2; sense 5′-GGUCUGGUGCCUGGUCUGAUGAUGU-3′ (SEQ ID NO: 9) (antisense ACAUCAUCAGACCAGGCACCAGACC; listed as RNA, further chemistry not given here)",Cox-2 gene expression / silencing activity (RT-PCR),Cox-2 mRNA in PC3 cells,potent
"hmHX-1: 25-mer siRNA duplex targeting human and mouse HoxB13; sense 5′-GGUGGCUGGAACAGCCAGAUGUGUU-3′ (SEQ ID NO: 7) (antisense AACACAUCUGGCUGUUCCAGCCACC; listed as RNA, further chemistry not given here)",Hoxb13 gene expression / silencing activity (RT-PCR),Hoxb13 mRNA in PC3 cells,potent
"I: KHHHKHHHKHHHKHHHKKKK-NH2 / II: KHHHKHHHKHHHKHHHK / III: KHHHKHHHKHHHKHHHK / IV: KHHHKHHHKHHHKHHHK (amide I:18-IV:C, I:19-III:C, I:20-II:C) [H3K4b]",organ toxicity,"lung, liver, and kidney",minimally toxic to the kidney

# Source: patent publication USRE46873E1, “Multi-targeted RNAi therapeutics for scarless wound healing of skin” (Sirnaomics, Inc., priority 2007, dated 2018)
